PubChem BioAssay AID256 (DTP/NCI, 2004)
Where “and” joins values, the source holds several entries; their conditions need not be identical. Equal entries are not always repeated. Inconclusive results and toxic doses are left out.

System: CD2F1 mice, L1210 leukemia ip, survival T/C
Experiment: NCI In Vivo Anticancer Drug Screen. Data for tumor model L1210 Leukemia (intraperitoneal) in CD2F1 (CDF1) mice
Settings: higher = longer survival
How it was run: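 In this screen, transplantable tumors were grown in mice given either the compound or its vehicle. Results were expressed as the treated measurement relative to the control measurement.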

[1] = endpoint: mean survival time, dose: 50.0 mg/kg/injection, schedule: Q01DX009 (ip), vehicle: saline with Tween-80
[2] = endpoint: mean survival time, dose: 100.0 mg/kg/injection, schedule: Q01DX009 (ip), vehicle: saline with Tween-80
[3] = endpoint: mean survival time, dose: 200.0 mg/kg/injection, schedule: Q01DX009 (ip), vehicle: saline with Tween-80

CC(C)CC1(C(C)C)C(=O)NC(=S)NC1=O
T/C (endpoint: mean survival time, dose: 5.0 mg/kg/injection, schedule: Q01DX001 (ip), vehicle: saline): 102 % of control
T/C (endpoint: mean survival time, dose: 10.0 mg/kg/injection, schedule: Q01DX001 (ip), vehicle: saline): 96 % of control
T/C (endpoint: mean survival time, dose: 20.0 mg/kg/injection, schedule: Q01DX001 (ip), vehicle: saline): 98 % of control
T/C (endpoint: mean survival time, dose: 40.0 mg/kg/injection, schedule: Q01DX001 (ip), vehicle: saline): 101 % of control

C1=CC2C3C=CC(C3)C2C1 (stereo not drawn)
T/C [1]: 94 % of control
T/C [2]: 93 % of control
T/C [3]: 98 % of control

O=[As](O)(CC(O)COc1ccc(Cl)cc1Cl)c1cccc(Cl)c1 (stereo not drawn)
T/C (endpoint: mean survival time, dose: 6.25 mg/kg/injection, schedule: Q04DX003 (ip), vehicle: saline with Tween-80): 98 % of control
T/C (endpoint: mean survival time, dose: 12.5 mg/kg/injection, schedule: Q04DX003 (ip), vehicle: saline with Tween-80): 110 % of control

O=S(=O)(Nc1ccc(NS(=O)(=O)c2ccccc2)c2ccccc12)c1ccccc1
T/C (endpoint: mean survival time, dose: 100.0 mg/kg/injection, schedule: Q04DX003 (ip), vehicle: saline with Tween-80): 97 % of control
T/C (endpoint: mean survival time, dose: 200.0 mg/kg/injection, schedule: Q04DX003 (ip), vehicle: saline with Tween-80): 91 % of control
T/C (endpoint: mean survival time, dose: 400.0 mg/kg/injection, schedule: Q04DX003 (ip), vehicle: saline with Tween-80): 96 % of control

CC(C)C1CCC(C)C(C(O)(C(F)(F)F)C(F)(F)F)C1O (stereo not drawn)
T/C (endpoint: mean survival time, dose: 100.0 mg/kg/injection, schedule: Q01DX001 (ip), vehicle: saline): 101 % of control
T/C (endpoint: mean survival time, dose: 100.0 mg/kg/injection, schedule: Q04DX002 (ip), vehicle: saline with Tween-80): 98 % of control
T/C (endpoint: mean survival time, dose: 200.0 mg/kg/injection, schedule: Q01DX001 (ip), vehicle: saline): 101 % of control
T/C (endpoint: mean survival time, dose: 200.0 mg/kg/injection, schedule: Q04DX002 (ip), vehicle: saline with Tween-80): 98 % of control
T/C (endpoint: mean survival time, dose: 400.0 mg/kg/injection, schedule: Q01DX001 (ip), vehicle: saline): 97 % of control
T/C (endpoint: mean survival time, dose: 400.0 mg/kg/injection, schedule: Q04DX002 (ip), vehicle: saline with Tween-80): 94 % of control

Cc1ccnc(OCCCCCNCCS)c1
T/C (endpoint: mean survival time, dose: 75.0 mg/kg/injection, schedule: Q01DX001 (ip), vehicle: saline): 98 % of control
T/C (endpoint: mean survival time, dose: 150.0 mg/kg/injection, schedule: Q01DX001 (ip), vehicle: saline): 98 % of control

CN(N=O)C(=O)NCC1OC(OC2(CO)OC(CNC(=O)N(C)N=O)C(O)C2O)C(O)C(O)C1O (stereo not drawn)
T/C (endpoint: mean survival time, dose: 50.0 mg/kg/injection, schedule: Q01DX009 (ip), vehicle: saline): 119 % of control
T/C (endpoint: mean survival time, dose: 100.0 mg/kg/injection, schedule: Q01DX009 (ip), vehicle: saline): 122 % of control
T/C (endpoint: mean survival time, dose: 133.0 mg/kg/injection, schedule: Q01DX009 (ip), vehicle: saline): 107 % of control

COc1cc(C(=O)c2c(OC)cccc2C(=O)O)c(OC)cc1C
T/C (endpoint: mean survival time, dose: 12.5 mg/kg/injection, schedule: Q01DX009 (ip), vehicle: water): 100 % of control
T/C (endpoint: mean survival time, dose: 25.0 mg/kg/injection, schedule: Q01DX009 (ip), vehicle: water): 100 % of control
T/C (endpoint: mean survival time, dose: 50.0 mg/kg/injection, schedule: Q01DX009 (ip), vehicle: water): 95 % of control
T/C (endpoint: mean survival time, dose: 100.0 mg/kg/injection, schedule: Q01DX009 (ip), vehicle: water): 95 % of control
T/C (endpoint: mean survival time, dose: 200.0 mg/kg/injection, schedule: Q01DX009 (ip), vehicle: water): 97 % of control

NS(=O)(=O)OCCCCCCCOS(N)(=O)=O
T/C (endpoint: median survival time, dose: 12.5 mg/kg/injection, schedule: Q01DX009 (ip), vehicle: saline with Tween-80): 114 % of control and 116 % of control and 110 % of control

Oc1c(Cl)c(Cl)c(O)c(Cl)c1Cl
T/C (endpoint: mean survival time, dose: 6.25 mg/kg/injection, schedule: Q01DX001 (ip), vehicle: saline with Tween-80): 98 % of control
T/C (endpoint: mean survival time, dose: 12.5 mg/kg/injection, schedule: Q01DX001 (ip), vehicle: saline with Tween-80): 95 % of control
T/C (endpoint: mean survival time, dose: 25.0 mg/kg/injection, schedule: Q01DX001 (ip), vehicle: saline with Tween-80): 95 % of control

OCC#CC1CCCCC1
T/C [1]: 107 % of control
T/C [2]: 107 % of control
T/C [3]: 101 % of control

O=C(C=C(C(F)(F)F)C(F)(F)F)c1cccc(C(F)(F)F)c1
T/C (endpoint: mean survival time, dose: 25.0 mg/kg/injection, schedule: Q04DX003 (ip), vehicle: saline with Tween-80): 106 % of control
T/C (endpoint: mean survival time, dose: 50.0 mg/kg/injection, schedule: Q04DX003 (ip), vehicle: saline with Tween-80): 106 % of control

CC(C)OC(=O)Nc1ccccc1F
T/C (endpoint: mean survival time, dose: 100.0 mg/kg/injection, schedule: Q01DX009 (ip), vehicle: other): 97 % of control
T/C (endpoint: mean survival time, dose: 200.0 mg/kg/injection, schedule: Q01DX009 (ip), vehicle: other): 96 % of control
T/C (endpoint: mean survival time, dose: 400.0 mg/kg/injection, schedule: Q01DX009 (ip), vehicle: other): 94 % of control

CC(=O)n1cc(F)c(=O)[nH]c1=O
T/C (endpoint: mean survival time, dose: 16.5 mg/kg/injection, schedule: Q01DX009 (ip), vehicle: saline): 172 % of control
T/C (endpoint: mean survival time, dose: 25.0 mg/kg/injection, schedule: Q01DX009 (ip), vehicle: saline with Tween-80): 169 % of control
T/C [1]: 105 % of control
